{
  "source": "patent US20180328927A1",
  "about": "(HUNAN SKYWORLD BIOTECHNOLOGIES CO., priority 2015, published 2018)",
  "key": {"MAT-III/I in L02 cells": {"tested_on": "MAT-III/I in L02 cells", "assay": "Intracellular MAT activity in L02 cells after GSNO pretreatment and Met", "type": "cell-based, human"}, "MAT-II in HepG2 cells": {"biological_target": "T1, MAT-II in HepG2 cells (Homo sapiens, UniProt P31153)", "T1 construct": "endogenous in cells; host or cells: HepG2", "assay": "Intracellular MAT activity in HepG2 cells after GSNO pretreatment and Met", "type": "cell-based"}, "[1]": {"tested_on": "anti-SAM monoclonal antibodies", "assay": "Cross-reaction of anti-SAM antibody with MAT substrates ATP and L-Met, direct competitive ELISA", "type": "binding", "details": "for Cross-reaction (%): relative to SAM standard at 50% inhibition", "method": "(A) Antigen-coating method: A PLL or BSA-conjugated SAM antigen is pre-coated on a solid-phase ELISA micro-titer plate that is then blocked with BSA solution. The antigen to be detected (SAM sample), then HRP-conjugated anti-SAM antibody are added and incubated at the same time. The antigen to be tested and the coating antigen compete for the enzyme-labeled antibody. After incubation and washing, the enzyme-labeled antibody bound to the coating antigen is retained, and the enzyme-labeled antibody that binds to the antigen to be detected (free antigen) is washed away. Finally, adding TMB substrate to the reaction wells. The final coloration result is inversely proportional to the amount of the antigen to be detected, that is, the higher the OD450 value, the lower the SAM concentration in the sample to be measured. In the course of the experiment, a series of SAM solutions with a known concentration were used as standards in the same ELISA micro-titer plate for the standard curve of the assay. Based on the standard curve, an equation showing how OD450 readings and values of the known standard concentration are related can be obtained. Put the sample OD450 into the equation to get the corresponding concentration value of the sample.\nThe ELISA plates were coated with PLL SAM antigen. […] The HRP-anti-SAM antibody was diluted at 1:25000 with HRP antibody diluent. Added 30 μl standards and cross-reacting substances ATP and Met per well, and 70 μl diluted HRP-anti-SAM antibody per well and incubated at 37° C. for 1 h. Washed the plate, added 100 μl TMB at 37° C. for 15 min, added 50 μl stop solution and read OD450.\nA/A0; reaction rate (A0 is the OD450 reading at 0 nM, A represents any OD450 reading of wells that have different amount of free small molecule antigen competing.)"}, "[2]": {"biological_target": "methionine adenosyltransferase (MAT) (Escherichia coli, UniProt P0A817)"}, "[3]": {"details": "cross-reacting substance 120 nM"}, "[4]": {"details": "cross-reacting substance 1200 nM"}, "[5]": {"details": "cross-reacting substance 3960 nM"}, "[6]": {"details": "cross-reacting substance 12000 nM"}},
  "note": "Entries after “also recorded” stand apart in the source; their conditions may differ. Read-outs that look alike come from different tables or passages of the source.",
  "data": [
    {"smiles": "N[C@@H](CCC(=O)N[C@@H](CSN=O)C(=O)NCC(=O)O)C(=O)O", "note": "[GSNO, nitrosoglutathione]", "values": [
      {"measurement": "effect of GSNO nitrosylation on MAT-III/I", "setting": "MAT-III/I in L02 cells; 1 mM GSNO pretreatment, Met stimulation", "result": "inhibition of MAT-III or MAT-I after nitrosation of GSNO was obvious; also recorded: inhibitory effect of GSNO nitrosylation on MAT-III/I was obvious"},
      {"measurement": "effect of GSNO nitrosylation on MAT activity", "setting": "MAT-III/I in L02 cells; in the presence of 2 mM Met", "result": "remained obvious"},
      {"measurement": "effect of GSNO nitrosylation on MAT-II", "setting": "MAT-II in HepG2 cells; 1 mM GSNO pretreatment", "result": "minor effect on MAT-II; also recorded: no inhibitory effect on MAT-II"}
    ]},
    {"smiles": "Nc1ncnc2c1ncn2[C@@H]1O[C@H](COP(=O)(O)OP(=O)(O)OP(=O)(O)O)[C@@H](O)[C@H]1O", "note": "[ATP, adenosine triphosphate]", "values": [
      {"measurement": "A/A0 (reaction rate)", "setting": "[1]; [3]", "result": 1.051},
      {"measurement": "A/A0 (reaction rate)", "setting": "[1]; [4]", "result": 1.001},
      {"measurement": "A/A0 (reaction rate)", "setting": "[1]; [5]", "result": 1.095},
      {"measurement": "A/A0 (reaction rate)", "setting": "[1]; [6]", "result": 1.086},
      {"measurement": "Cross-reaction (%)", "setting": "[1]", "result": "<1", "unit": "%"}
    ]},
    {"smiles": "O=S(=O)([O-])[O-].[Mg+2]", "note": "[MgSO4]", "values": [
      {"measurement": "A/A0", "setting": "[2]; MgSO4 4 mM, 250 mM KCl, 100 mM Tris, ATP 5 mM, Met 4 mM, MAT 1 mg/ml", "result": 0.2199},
      {"measurement": "A/A0", "setting": "[2]; MgSO4 10 mM", "result": 0.2047},
      {"measurement": "A/A0", "setting": "[2]; MgSO4 30 mM", "result": 0.1867},
      {"measurement": "A/A0", "setting": "[2]; MgSO4 50 mM", "result": 0.1766},
      {"measurement": "A/A0", "setting": "[2]; MgSO4 70 mM", "result": 0.1734},
      {"measurement": "A/A0", "setting": "[2]; MgSO4 100 mM", "result": 0.1724},
      {"measurement": "decrease of A/A0", "setting": "[2]; MgSO4 from 4 mM to 100 mM", "result": 0.475}
    ]},
    {"smiles": "[Cl-].[K+]", "note": "[KCl]", "values": [
      {"measurement": "A/A0", "setting": "[2]; KCl 50 mM, 20 mM MgSO4, 100 mM Tris, ATP 5 mM, Met 4 mM, MAT 1 mg/ml", "result": 0.1983},
      {"measurement": "A/A0", "setting": "[2]; KCl 100 mM", "result": 0.1938},
      {"measurement": "A/A0", "setting": "[2]; KCl 150 mM", "result": 0.1911},
      {"measurement": "A/A0", "setting": "[2]; KCl 200 mM", "result": 0.1973},
      {"measurement": "A/A0", "setting": "[2]; KCl 250 mM", "result": 0.2079},
      {"measurement": "A/A0", "setting": "[2]; KCl 300 mM", "result": 0.2106},
      {"measurement": "A/A0", "setting": "[2]; KCl 400 mM", "result": 0.1995}
    ]},
    {"smiles": "CSCC[C@H](N)C(=O)O", "note": "[Met, methionine]", "values": [
      {"measurement": "A/A0 (reaction rate)", "setting": "[1]; [3]", "result": 1.042},
      {"measurement": "A/A0 (reaction rate)", "setting": "[1]; [4]", "result": 1.046},
      {"measurement": "A/A0 (reaction rate)", "setting": "[1]; [5]", "result": 1.012},
      {"measurement": "A/A0 (reaction rate)", "setting": "[1]; [6]", "result": 1.095},
      {"measurement": "Cross-reaction (%)", "setting": "[1]", "result": "<1", "unit": "%"},
      {"measurement": "SAM (nM) synthesized by MAT", "setting": "MAT-III/I in L02 cells; 0.5 mM Met 24 h, normalized to 2×10^7 cells, 0 mM Met control 274.4578162", "result": 377.7, "unit": "nM"},
      {"measurement": "effect on MAT-III/I activity", "setting": "MAT-III/I in L02 cells; 500 μM Met, 24 hours", "result": "stimulated the activity of MAT-III or MAT-I; also recorded: stimulated MAT-III/I activity"},
      {"measurement": "effect on MAT-III/I activity", "setting": "MAT-III/I in L02 cells; 2 mM Met", "result": "No stimulatory effects; also recorded: stimulation was not significant"},
      {"measurement": "SAM (nM) synthesized by MAT", "setting": "MAT-III/I in L02 cells; 2 mM Met 24 h", "result": 236.4, "unit": "nM"},
      {"measurement": "SAM (nM) synthesized by MAT", "setting": "MAT-II in HepG2 cells; 0.5 mM Met 24 h, normalized to 2×10^7 cells, 0 mM Met control 247.4761", "result": 222.3993, "unit": "nM"},
      {"measurement": "SAM (nM) synthesized by MAT", "setting": "MAT-II in HepG2 cells; 2 mM Met 24 h", "result": 174.3621, "unit": "nM"},
      {"measurement": "effect on MAT-II activity", "setting": "MAT-II in HepG2 cells; Met 0.5 and 2 mM", "result": "the higher the Met concentration, the lower the activity of MAT-II; also recorded: inhibits MAT-II activity"}
    ]},
    {"smiles": "NC(CO)(CO)CO", "note": "[Tris, tris (hydroxymethyl) aminomethane]", "values": [
      {"measurement": "A/A0", "setting": "[2]; Tris 20 mM, after optimal Mg2+ and K+ were determined", "result": 0.4981},
      {"measurement": "A/A0", "setting": "[2]; Tris 50 mM", "result": 0.2567},
      {"measurement": "A/A0", "setting": "[2]; Tris 100 mM", "result": 0.2168},
      {"measurement": "A/A0", "setting": "[2]; Tris 200 mM", "result": 0.2472}
    ]}
  ]
}
